# In publication PMC8015227, “Understanding the Metabolism of Proteolysis Targeting Chimeras (PROTACs): The Next Step toward Pharmaceutical Applications” (Journal of Medicinal Chemistry, 2020):
# Read-outs that look alike come from different tables or passages of the source.
# Experiments:
# [1] = Metabolic stability in cryopreserved human hepatocytes; assay type: in vitro ADME; conditions: human
# Experimental: (§1) Cryopreserved human hepatocytes (pooled suspension hepatocytes, Gibco) were thawed placing in a 37 °C shaking water bath according to the manufacturer’s specifications and resuspended in Williams E medium (WEM) to have 1 × 10^6 cells/mL. Samples with the test compound at 1 μM were incubated at 37 °C, and aliquots of 50 μL were collected at 0, 10, 30, 60, 120, and 240 min. The incubations were quenched 1:3 with ice-cold acetonitrile (containing 1 μM labetalol as the internal standard). Samples were then centrifuged at 12000 rpm for 5 min at 4 °C. The supernatant was concentrated by evaporation under a nitrogen stream and reconstituted with DMSO. Blank was prepared similarly but in the absence of the investigated compounds.
# (§2) A Thermo Q-exactive mass spectrometer (Thermo Fisher Scientific, Waltham, MA) was used. The LC system, governed by Chromeleon X-press software, consists of a Binary pump, a thermostated autosampler, and a column compartment, all Dionex Ultimate 3000 series modules (Thermo Fisher Scientific, Waltham, MA). A volume of 2 μL was injected for each sample. Chromatographic separation of analytes was conducted in reverse-phase chromatography. In brief, a Luna Omega 1.6 μm Polar (C18, 2.1 mm × 150 mm) was used, and the mobile phases consisted of water (A) and acetonitrile (B), both containing formic acid at 0.1%. The LC flow was set at 0.400 mL/min in a 12 min gradient elution as follows: 99.5:0.5 (A/B) to 5:95 (A/B) over 10 min, 5:95 (A/B) for 2 min, and then reversion back to 99.5:0.5 (A/B) over 2.5 min. The column was operating at a constant temperature of 40 °C.
# [2] = Nonenzymatic stability of 1 (dBet1) in the autosampler in four solutions during LC-MS; assay type: physicochemical; conditions: for nonenzymatic stability in autosampler: 12 h
# Experimental: dBet1 (1) (10 mM in DMSO) was diluted 1:1000 in PBS/ACN (50:50, vol/vol) to afford a final concentration of 10 μM; 100 μL was drawn and dried under a gentle nitrogen stream at 40 °C for 30 min. After that evaporation was completed, the dry residue was reconstituted with 100 μL of DMSO. Additional three solutions of dBet1 (1) (10 μM) were prepared in PBS, PBS/ACN (50:50, vol/vol), and DMSO. The four solutions were stored into the autosampler of the LC apparatus at 37 °C for 12 h. Injections (2 μL) were programmed every 3 h.
# CYP3A4 = CYP3A4 (Homo sapiens, UniProt P08684); assay: in vitro; conditions: pH 7.4
# Sequence of CYP3A4 (P08684 whole entry): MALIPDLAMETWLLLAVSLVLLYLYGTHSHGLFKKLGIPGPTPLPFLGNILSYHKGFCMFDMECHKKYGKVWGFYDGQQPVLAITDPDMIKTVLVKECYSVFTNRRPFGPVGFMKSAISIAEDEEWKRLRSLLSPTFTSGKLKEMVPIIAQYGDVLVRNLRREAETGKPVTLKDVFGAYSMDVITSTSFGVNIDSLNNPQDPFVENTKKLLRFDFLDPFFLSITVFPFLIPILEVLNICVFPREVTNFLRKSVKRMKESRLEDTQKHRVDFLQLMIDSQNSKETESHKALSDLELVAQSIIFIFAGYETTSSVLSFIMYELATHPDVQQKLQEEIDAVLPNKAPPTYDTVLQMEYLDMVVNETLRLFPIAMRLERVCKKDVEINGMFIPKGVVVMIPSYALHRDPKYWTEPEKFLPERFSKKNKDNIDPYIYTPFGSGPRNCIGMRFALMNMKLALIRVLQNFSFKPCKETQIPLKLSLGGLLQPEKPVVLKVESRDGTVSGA
# Experimental: (§3) Metabolism of the selected compounds was evaluated upon incubation with human liver cytosol (Gibco) and supersome recombinant CYP isoforms 3A4 expressed in baculovirus-infected insect cells (Gibco). For metabolism in CYP3A4, test compounds (1 μM) were incubated in 0.1 M potassium phosphate buffer (pH 7.4) and allowed to equilibrate at 37 °C. Freshly prepared 25 mM nicotinamide adenine dinucleotide phosphate (NADPH, 1 mM final concentration) was added to the incubation mixture to start the reaction. For metabolism in human liver cytosol, reactions were initiated by adding test compounds (1 μM) to the mix reaction constituted by the human liver cytosol (1 mg/mL) prewarmed in potassium phosphate buffer (pH 7.4). […] In both procedures, aliquots (50 μL) of the incubation mix were removed at 0, 10, 20, 30, and 60 min (CYP3A4) or 0, 30, 60, and 90 min (human liver cytosol) and added to 50 μL of ice-cold acetonitrile quench solution (internal standard, 1 μM labetalol) to stop the reaction. Samples were then centrifuged at 12 000 rpm for 5 min at 4 °C. The supernatant was concentrated by evaporation under a nitrogen stream and reconstituted in DMSO. The blank was prepared similarly but in the absence of the investigated compounds. Samples were then analyzed by LC–MS/MS (see the Analytical procedure).
# as §2
# [3] = biological target: T1, aldehyde oxidase (hAOX, AOX1) (Homo sapiens, UniProt Q06278); assay: Metabolism in human liver cytosol with/without hydralazine (hAOX); assay type: in vitro ADME; conditions: human, human liver cytosol, pH 7.4; Figure 7A
# T1 construct: human aldehyde oxidase (hAOX), a cytosolic drug-metabolizing enzyme expressed in the human liver; tissue Gibco; host or cells: human liver cytosol
# T1 sequence (Q06278 1-1338): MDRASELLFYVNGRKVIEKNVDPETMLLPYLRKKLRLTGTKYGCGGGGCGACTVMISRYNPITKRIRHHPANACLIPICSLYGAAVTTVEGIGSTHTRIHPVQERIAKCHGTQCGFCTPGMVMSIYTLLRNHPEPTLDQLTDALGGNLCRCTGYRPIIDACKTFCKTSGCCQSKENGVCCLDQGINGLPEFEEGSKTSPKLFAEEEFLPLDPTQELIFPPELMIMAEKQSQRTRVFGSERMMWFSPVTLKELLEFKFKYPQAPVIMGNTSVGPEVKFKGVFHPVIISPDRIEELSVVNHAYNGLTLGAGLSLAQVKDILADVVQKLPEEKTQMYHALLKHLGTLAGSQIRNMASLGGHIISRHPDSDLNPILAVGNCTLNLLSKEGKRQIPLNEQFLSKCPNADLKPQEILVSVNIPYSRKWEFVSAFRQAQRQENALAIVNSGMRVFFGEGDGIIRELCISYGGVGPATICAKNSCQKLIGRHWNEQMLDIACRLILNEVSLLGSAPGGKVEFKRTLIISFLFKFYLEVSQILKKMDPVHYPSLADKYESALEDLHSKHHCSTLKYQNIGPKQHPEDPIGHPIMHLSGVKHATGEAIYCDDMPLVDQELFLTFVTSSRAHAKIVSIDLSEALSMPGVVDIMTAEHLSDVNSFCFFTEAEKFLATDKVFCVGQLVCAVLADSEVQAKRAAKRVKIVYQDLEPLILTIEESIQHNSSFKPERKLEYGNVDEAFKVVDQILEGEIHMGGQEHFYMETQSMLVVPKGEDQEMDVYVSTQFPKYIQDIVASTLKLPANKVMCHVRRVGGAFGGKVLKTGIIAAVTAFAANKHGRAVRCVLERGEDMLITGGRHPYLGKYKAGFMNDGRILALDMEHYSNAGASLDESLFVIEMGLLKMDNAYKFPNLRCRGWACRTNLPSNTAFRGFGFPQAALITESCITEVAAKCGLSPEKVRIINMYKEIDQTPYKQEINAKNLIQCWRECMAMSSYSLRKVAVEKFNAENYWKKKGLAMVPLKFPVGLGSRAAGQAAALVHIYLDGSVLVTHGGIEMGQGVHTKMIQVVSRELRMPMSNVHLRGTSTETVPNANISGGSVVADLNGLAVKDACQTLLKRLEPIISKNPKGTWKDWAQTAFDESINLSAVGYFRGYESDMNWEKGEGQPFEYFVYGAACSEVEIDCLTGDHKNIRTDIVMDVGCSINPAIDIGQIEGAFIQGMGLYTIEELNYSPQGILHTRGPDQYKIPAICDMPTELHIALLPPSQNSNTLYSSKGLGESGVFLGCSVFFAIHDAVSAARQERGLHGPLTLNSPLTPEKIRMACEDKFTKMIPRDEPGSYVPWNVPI
# Experimental: as §3, §2
# [4] = biological target: T2, human aldehyde oxidase (hAOX) in human liver cytosol (Homo sapiens, UniProt Q06278); assay: as above; assay type: in vitro ADME; conditions: for reactions observed in human liver cytosol: 30, 60, 90 min, absence and presence of hydralazine, both in the VHL ligand moiety; for hAOX percentage of substrate left at the final time point of analysis / hAOX t1/2: supplement CSV; for hAOX percentage of substrate left at the final time point of analysis: in brackets, final time point 90 min; for hAOX t1/2: human liver cytosol 1 mg/mL, up to 90 min
# T2 construct: human aldehyde oxidase (hAOX), a cytosolic drug-metabolizing enzyme expressed in the human liver; tissue Gibco; host or cells: human liver cytosol
# T2 sequence (Q06278 1-1338): T1 sequence (Q06278 1-1338)
# Experimental: as §3, §2
# [5] = system: cryopreserved human hepatocytes; assay: Metabolic stability in cryopreserved human hepatocytes; assay type: in vitro ADME
# Experimental: as §1, §2
# [6] = cryopreserved human hepatocytes (pooled, suspension), Figures 3-5, cryopreserved human hepatocytes, read-out: half-life (t1/2)
# [7] = cryopreserved human hepatocytes (pooled, suspension), Table S1, PROTACs, cryopreserved human hepatocytes, read-out: t1/2
# [8] = cryopreserved human hepatocytes (pooled, suspension), supplement CSV, human hepatocytes, read-out: HLH t1/2
# [9] = cryopreserved human hepatocytes (pooled, suspension), Table S2, free ligands, cryopreserved human hepatocytes, read-out: t1/2
Compound,"half-life at 1 µM [1, 6] [h]","half-life at 1 µM [1, 7] [h]","half-life at 1 µM [1, 8] [h]",half-life at 1 µM (CYP3A4) [h],also measured
"Cc1sc2c(c1C)C(c1ccc(Cl)cc1)=N[C@@H](CC(=O)NCCCCNC(=O)COc1cccc3c1C(=O)N(C1CCC(=O)NC1=O)C3=O)c1nnc(C)n1-2 (stereo partly shown) [Compound 1, dBet1]",2.25,2.25,2.25,–,"nonenzymatic stability in autosampler ([2]; PBS/ACN (1:1 v/v), 37 °C): Degradation was also observed; substrate degradation within the first three hours ([2]; PBS/ACN-DMSO protocol, autosampler 37 °C): about 10%; nonenzymatic stability in autosampler ([2]; pure DMSO, 37 °C): very stable over time; nonenzymatic stability in autosampler ([2]; pure PBS pH 7.4, 37 °C): rapidly degrades"
"Cc1sc2c(c1C)C(c1ccc(Cl)cc1)=N[C@@H](CC(=O)NCCOCCOCCNc1cccc3c1C(=O)N(C1CCC(=O)NC1=O)C3=O)c1nnc(C)n1-2 (stereo partly drawn) [Compound 5, 2-((S)-4-(4-Chlorophenyl)-2,3,9-trimethyl-6H-thieno[3,2-f][1,2,4]triazolo[4,3-a][1,4]diazepin-6-yl)-N-(2-(2-(2-((2-(2,6-dioxopiperidin-3-yl)-1,3-dioxoisoindolin-4-yl)amino)ethoxy)ethoxy)ethyl)acetamide]",–,0.823,0.823,0.0183,–
"O=C(COc1c(-c2csc(N3CCOCC3)n2)ccc(F)c1F)NCCCCCCNc1cccc2c1C(=O)N(C1CCC(=O)NC1=O)C2=O (stereo not shown) [Compound 29, 2-(2,3-Difluoro-6-(2-morpholinothiazol-4-yl)phenoxy)-N-(6-((2-(2,6-dioxopiperidin-3-yl)-1,3-dioxoisoindolin-4-yl)amino)hexyl)acetamide]",–,0.892,0.892,0.123,–
Cc1ncsc1-c1ccc([C@H](CC(=O)NCCCCCCNC(=O)COc2c(-c3csc(N4CCOCC4)n3)ccc(F)c2F)NC(=O)[C@@H]2C[C@@H](O)CN2C(=O)[C@@H](NC(=O)C2(F)CC2)C(C)(C)C)cc1 [Compound 40],1.11,1.11,1.11,0.377,–
"Cc1sc2c(c1C)C(c1ccc(Cl)cc1)=N[C@@H](CC(=O)O)c1nnc(C)n1-2 [Compound 43, (+)-JQ1, reference compound]",–,–,–,–,"half-life at 1 µM ([1]; hepatocytes, HLH t1/2 (min)): > 4 h; half-life at 1 µM ([1]; hepatocytes, t1/2 (min)): > 4 h; Reaction (soft spots) [5]: a. Aliphatic-hydroxylation; HLH percentage of substrate left at the final time point of analysis ([5]; human, 240 min, 1 µM): 100.0%"
"Cl.O=C(c1cc(Cc2n[nH]c(=O)c3ccccc23)ccc1F)N1CCNCC1 [Compound 45, reference compound]",–,–,> 4,–,"half-life at 1 µM [1, 9]: > 4 h; HLH percentage of substrate left at the final time point of analysis ([5]; supplement CSV, in brackets, final time point 240 min): 77.7%"
"Oc1c(-c2csc(N3CCOCC3)n2)ccc(F)c1F [Compound 46, reference compound]",< 0.333,–,0.305,–,"half-life at 1 µM ([1]; cryopreserved human hepatocytes (pooled, suspension), Table 1, incubation in cryopreserved human hepatocytes, 1 μM, up to 240 min, read-out: t1/2): 0.305 h; half-life at 1 µM [1, 9]: 0.305 h; Reaction (soft spots) ([5]; Table 1, biotransformations observed in cryopreserved human hepatocytes): a. O-dealkylation b.Glucuronidation c. Aliphatic hydroxylation"

# Second part, led by results:
"half-life at 1 µM [1, 6] [h]","half-life at 1 µM [1, 7] [h]","half-life at 1 µM [1, 8] [h]",half-life at 1 µM (CYP3A4) [h],Compound,also measured
1.24,1.24,1.24,–,Cc1ncsc1-c1ccc([C@H](C)NC(=O)[C@@H]2C[C@@H](O)CN2C(=O)[C@@H](NC(=O)CCCCNC(=O)COc2c(-c3csc(N4CCOCC4)n3)ccc(F)c2F)C(C)(C)C)cc1 [Compound 33],half-life at 1 µM [3]: > 1.5 h; reactions observed in human liver cytosol [4]: the hydrolysis of an amide and an oxidation; hAOX percentage of substrate left at the final time point of analysis [4]: 83.5%; hAOX t1/2 [4]: > 1.5 h
–,1.43,1.43,–,Cc1ncsc1-c1ccc([C@H](C)NC(=O)[C@@H]2C[C@@H](O)CN2C(=O)[C@@H](NC(=O)CCCCN(C)C(=O)COc2c(-c3csc(N4CCOCC4)n3)ccc(F)c2F)C(C)(C)C)cc1 [Compound 34],half-life at 1 µM [3]: > 1.5 h; reactions observed in human liver cytosol [4]: the hydrolysis of an amide and an oxidation; hAOX percentage of substrate left at the final time point of analysis [4]: 83.4%; hAOX t1/2 [4]: > 1.5 h
0.417,0.417,0.417,0.0283,Cc1ncsc1-c1ccc([C@H](C)NC(=O)[C@@H]2C[C@@H](O)CN2C(=O)[C@@H](NC(=O)CCCCCCNC(=O)COc2c(-c3csc(N4CCOCC4)n3)ccc(F)c2F)C(C)(C)C)cc1 [Compound 35],–
